Measured values reported in patent publication US10294272B2, “Peptides with antagonistic activities against natural CXCR4” (Pharis Biotec GmbH, priority 2013, dated 2019).
Positions of bridges follow the written chain, without caps; N, C: chain ends. Residues, ends and D or L forms follow the SMILES beside them. Chains are numbered I, II in the order given. No end group written: not given here.

The molecules below were run on X4 tropic HIV-1 NL4-3. Settings: blocking X4 tropic HIV-1 NL4-3 infection.
Procedure: Antiviral screening was performed using the X4 HIV-1 NL4-3 molecular clone.
HIV-1, HIV-2 and SIV molecular clones differing in coreceptor tropism were generated by transient transfection of 293T cells with proviral DNA by the calcium phosphate method (CalPhos™ Mammalian Transfection Kit, Clon-tech). After overnight incubation, the transfection mixture was replaced by DMEM medium supplemented with 10% FCS, and virus stocks were harvested 48 hrs post-transfection. Subsequently, the culture supernatant was centrifuged for 5 min at 3000 rpm to remove cell debris. The resulting virus stock was quantified by p24 (HIV) or p27 (SIV) antigen ELISA. Virus stocks were either used immediately or stored in aliquots at −80° C.
TZM-bl reporter cells containing the LacZ reporter gene under the control of the HIV-1 promoter were seeded in 96-well F-bottom microtiter plates (Greiner Bio-One). On the following day, the cells were preincubated with various dilutions of the peptide of SEQ ID NO 16 or its derivatives for 1 hour and subsequently infected with HIV-1, HIV-2, and SIV. Infection rates were determined after 2 days using the one-step Tropix Gal-Screen Kit, as recommended by the manufacturer.

Point of comparison: LVRYTKKV [Derivative 408-415, LVRYTKKV], IC50 25.7 µM. Against it:
- IVRYSKKVPQC [408I-418 SC, IVRYSKKVPQC] — 8.7-fold lower, 2.94 µM
- IVRWSKKVCQVS [408I-419 WSC03, IVRWSKKVCQVS] — 17-fold lower, 1.51 µM
- IVRYTKKVPQCS [408I-419 V418C, IVRYTKKVPQCS] — 7-fold lower, 3.69 µM
- CC[C@H](C)[C@H](N)C(=O)N[C@H](C(=O)N[C@@H](CCCNC(=N)N)C(=O)N[C@@H](Cc1ccc(O)cc1)C(=O)N[C@@H](CO)C(=O)N[C@@H](CCCCN)C(=O)N[C@@H](CCCCN)C(=O)N[C@H](C(=O)N1CCC[C@H]1C(=O)N[C@@H](CCC(N)=O)C(=O)N[C@@H](CSSC[C@H](NC(=O)[C@H](CCC(N)=O)NC(=O)[C@@H]1CCCN1C(=O)[C@@H](NC(=O)[C@H](CCCCN)NC(=O)[C@H](CCCCN)NC(=O)[C@H](CO)NC(=O)[C@H](Cc1ccc(O)cc1)NC(=O)[C@H](CCCNC(=N)N)NC(=O)[C@@H](NC(=O)[C@@H](N)[C@@H](C)CC)C(C)C)C(C)C)C(=O)O)C(=O)O)C(C)C)C(C)C [408I-418 SC x2, (IVRYSKKVPQC)2] (I: H-IVRYSKKVPQC-OH / II: H-IVRYSKKVPQC-OH; disulfide I:11-II:11; N-terminus and C-terminus assumed) — 66-fold lower, 0.39 µM
- IVRSTKKVPQVS [408I-419 Y411S, IVRSTKKVPQVS] — higher, > 100 µM
- LVRYTKKVPQVSTP [Derivative 408-421, LVRYTKKVPQVSTP] — 1.8-fold lower, 14 µM
- IVKYTKKVPQVS [408I-419 R410K, IVKYTKKVPQVS] — higher, > 100 µM
- CC[C@H](C)[C@H](N)C(=O)N[C@H](C(=O)N[C@@H](CCCNC(=N)N)C(=O)N[C@@H](Cc1c[nH]c2ccccc12)C(=O)N[C@@H](CSSC[C@H](NC(=O)[C@H](Cc1c[nH]c2ccccc12)NC(=O)[C@H](CCCNC(=N)N)NC(=O)[C@@H](NC(=O)[C@@H](N)[C@@H](C)CC)C(C)C)C(=O)N[C@@H](CCCCN)C(=O)N[C@@H](CCCCN)C(=O)N[C@H](C(=O)N1CCC[C@H]1C(=O)N[C@@H](CCC(N)=O)C(=O)N[C@H](C(=O)N[C@@H](CO)C(=O)O)C(C)C)C(C)C)C(=O)N[C@@H](CCCCN)C(=O)N[C@@H](CCCCN)C(=O)N[C@H](C(=O)N1CCC[C@H]1C(=O)N[C@@H](CCC(N)=O)C(=O)N[C@H](C(=O)N[C@@H](CO)C(=O)O)C(C)C)C(C)C)C(C)C [408I-419 WC03 x2, (IVRWCKKVPQVS)2] (I: H-IVRWCKKVPQVS-OH / II: H-IVRWCKKVPQVS-OH; disulfide I:5-II:5; N-terminus and C-terminus assumed) — 43-fold lower, 0.6 µM
- LARYTKKV [408-415-V409A, LARYTKKV] — within 1.5-fold, 32.9 µM
- IVHYTKKVPQVS [408I-419 R410H, IVHYTKKVPQVS] — higher, > 100 µM
- CC[C@H](C)[C@H](N)C(=O)N[C@H](C(=O)N[C@@H](CCCNC(=N)N)C(=O)N[C@@H](Cc1c[nH]c2ccccc12)C(=O)N[C@H](C(=O)N[C@@H](CCCCN)C(=O)N[C@@H](CCCCN)C(=O)N[C@H](C(=O)N1CCC[C@H]1C(=O)N[C@@H](CCC(N)=O)C(=O)N[C@H](C(=O)N[C@@H](CSSC[C@H](NC(=O)[C@@H](NC(=O)[C@H](CCC(N)=O)NC(=O)[C@@H]1CCCN1C(=O)[C@@H](NC(=O)[C@H](CCCCN)NC(=O)[C@H](CCCCN)NC(=O)[C@@H](NC(=O)[C@H](Cc1c[nH]c2ccccc12)NC(=O)[C@H](CCCNC(=N)N)NC(=O)[C@@H](NC(=O)[C@@H](N)[C@@H](C)CC)C(C)C)[C@@H](C)O)C(C)C)C(C)C)C(=O)O)C(=O)O)C(C)C)C(C)C)[C@@H](C)O)C(C)C [408I-419 WC01_x2, (IVRWTKKVPQVC)2] (I: H-IVRWTKKVPQVC-OH / II: H-IVRWTKKVPQVC-OH; disulfide I:12-II:12; N-terminus and C-terminus assumed) — 64-fold lower, 0.4 µM
- LVRYTKKVPQVS [Derivative 408-419, LVRYTKKVPQVS] — 4.7-fold lower, 5.49 µM
- CC[C@H](C)[C@H](N)C(=O)N[C@H](C(=O)N[C@@H](CCCNC(=N)N)C(=O)N[C@@H](Cc1c[nH]c2ccccc12)C(=O)N[C@H](C(=O)N[C@@H](CSSC[C@H](NC(=O)[C@@H](NC(=O)[C@H](Cc1c[nH]c2ccccc12)NC(=O)[C@H](CCCNC(=N)N)NC(=O)[C@@H](NC(=O)[C@@H](N)[C@@H](C)CC)C(C)C)[C@@H](C)O)C(=O)N[C@@H](CCCCN)C(=O)N[C@H](C(=O)N1CCC[C@H]1C(=O)N[C@@H](CCC(N)=O)C(=O)N[C@H](C(=O)N[C@@H](CO)C(=O)O)C(C)C)C(C)C)C(=O)N[C@@H](CCCCN)C(=O)N[C@H](C(=O)N1CCC[C@H]1C(=O)N[C@@H](CCC(N)=O)C(=O)N[C@H](C(=O)N[C@@H](CO)C(=O)O)C(C)C)C(C)C)[C@@H](C)O)C(C)C [408I-419 WC02 x2, (IVRWTCKVPQVS)2] (I: H-IVRWTCKVPQVS-OH / II: H-IVRWTCKVPQVS-OH; disulfide I:6-II:6; N-terminus and C-terminus assumed) — 80-fold lower, 0.32 µM
- CC[C@H](C)[C@H](N)C(=O)N[C@H](C(=O)N[C@@H](CCCNC(=N)N)C(=O)N[C@@H](Cc1ccc(O)cc1)C(=O)N[C@H](C(=O)N[C@@H](CCCCN)C(=O)N[C@@H](CCCCN)C(=O)N[C@H](C(=O)N1CCC[C@H]1C(=O)N[C@@H](CCC(N)=O)C(=O)N[C@@H](CSSC[C@H](NC(=O)[C@H](CCC(N)=O)NC(=O)[C@@H]1CCCN1C(=O)[C@@H](NC(=O)[C@H](CCCCN)NC(=O)[C@H](CCCCN)NC(=O)[C@@H](NC(=O)[C@H](Cc1ccc(O)cc1)NC(=O)[C@H](CCCNC(=N)N)NC(=O)[C@@H](NC(=O)[C@@H](N)[C@@H](C)CC)C(C)C)[C@@H](C)O)C(C)C)C(=O)N[C@@H](CO)C(=O)O)C(=O)N[C@@H](CO)C(=O)O)C(C)C)[C@@H](C)O)C(C)C [408I-419 V418C x2, (IVRYTKKVPQCS)2] (I: H-IVRYTKKVPQCS-OH / II: H-IVRYTKKVPQCS-OH; disulfide I:11-II:11; N-terminus and C-terminus assumed) — 56-fold lower, 0.46 µM
- IVRWTKKVPQVS [408I-419 Y411W, IVRWTKKVPQVS] — 17-fold lower, 1.54 µM
- IVRFTKKVPQVS [408I-419 Y411F, IVRFTKKVPQVS] — 6.6-fold lower, 3.89 µM
- LVRYAKKV [408-415-T412A, LVRYAKKV] — 2.3-fold lower, 11.2 µM
- LVRYTKKVPQVSTPT [Derivative 408-422, LVRYTKKVPQVSTPT] — 1.9-fold lower, 13.4 µM
- CC[C@H](C)[C@H](N)C(=O)N[C@H](C(=O)N[C@@H](CCCNC(=N)N)C(=O)N[C@@H](Cc1c[nH]c2ccccc12)C(=O)N[C@@H](CO)C(=O)N[C@@H](CCCCN)C(=O)N[C@@H](CCCCN)C(=O)N[C@H](C(=O)N1CCC[C@H]1C(=O)N[C@@H](CCC(N)=O)C(=O)N[C@@H](CSSC[C@H](NC(=O)[C@H](CCC(N)=O)NC(=O)[C@@H]1CCCN1C(=O)[C@@H](NC(=O)[C@H](CCCCN)NC(=O)[C@H](CCCCN)NC(=O)[C@H](CO)NC(=O)[C@H](Cc1c[nH]c2ccccc12)NC(=O)[C@H](CCCNC(=N)N)NC(=O)[C@@H](NC(=O)[C@@H](N)[C@@H](C)CC)C(C)C)C(C)C)C(=O)N[C@@H](CO)C(=O)O)C(=O)N[C@@H](CO)C(=O)O)C(C)C)C(C)C [408I-419 WSC01 x2, (IVRWSKKVPQCS)2] (I: H-IVRWSKKVPQCS-OH / II: H-IVRWSKKVPQCS-OH; disulfide I:11-II:11; N-terminus and C-terminus assumed) — 140-fold lower, 0.18 µM
- IVRYTKKVPQVS [Derivative 408I-419, IVRYTKKVPQVS] — 10-fold lower, 2.48 µM
- IVRWTKKVPQVC [408I-419 WC01, IVRWTKKVPQVC] — 16-fold lower, 1.65 µM
- LVRYTKKVPQV [Derivative 408-418, LVRYTKKVPQV] — within 1.5-fold, 26.8 µM
- LVRYTKKVPQ [Derivative 408-417, LVRYTKKVPQ] — within 1.5-fold, 19.8 µM
- LVRYTKKVPQVST [Derivative 408-420, LVRYTKKVPQVST] — 1.7-fold lower, 15.3 µM
